Read-outs that look alike come from different tables or passages of the source.
Tests used:
[1] = MPA trough at 12 h in study patients by CYP3A5*3*6*7 metabolic group; conditions: both sexes, human, in vivo, oral, ECMPS at steady state
Procedure: (§1) Tacrolimus doses were adjusted to 4–9 ng/ml troughs based upon time post-transplant and clinical response using a program-specific minimization protocol. ECMPS was dose adjusted based upon clinical response. Estimated glomerular filtration rate (e-GFR) was calculated using the four-factor MDRD equation ([Levey et al., 1999]). Medication adherence was verified by transplant nurse clinician and medication adherence assessment by transplant pharmacist at enrollment. Ethnicity for two previous generations was verified prior to study.

[2] = 12-h steady-state tacrolimus pharmacokinetics by CYP3A5*3*6*7 metabolic composite group in renal transplant recipients; format: in vivo, human
Procedure: as §1
Loss of protein function due to any one of these variants can occur independent of allelic status at the other two loci; thus assessment of any single SNP may be misleading as an indicator of enzyme function. Patients were assigned a metabolic composite designation as described earlier ([Campagne et al., 2018]) based upon the combined allelic status at all three independent loci (Figure 1). The Extensive Metabolizer phenotype was assigned to individuals with functional genes on both chromosomes. Patients were assigned the Poor Metabolizer phenotype if they were homozygous for the variant allele at any one of the three SNPs and thus CYP3A5 genes on both chromosomes are non-functional (Figure 1C). Patients were designated as Intermediate Metabolizer if they were heterozygous for one loss of function SNP at any of the three loci (Figure 1B). Finally, for patients who were heterozygous at two or more of the SNPs responsible for loss of function, the level of enzyme is dependent upon the arrangement of the variant alleles on each chromosome (Figure 1D). […] For this analysis double heterozygotes (Figure 1D) were conservatively assigned as an Intermediate Metabolizer since individuals could either be poor or intermediate metabolizers.

[3] = Tacrolimus pharmacokinetics stratified by CYP3A5 metabolic composite and ABCB1 3435 genotype; format: in vivo, human; conditions: for Tmax / AUC / Cmax / concentration at 12 h / clearance: human, whole blood, oral; for concentration at 12 h: read-out: C12hr; for clearance: read-out: CL/LBW (converted)
Procedure: To assess the role of both CYP3A5 and ABCB1 variants on tacrolimus pharmacokinetics the CYP3A5 metabolic composite groups and the ABCB1 3435C > T (rs1045642) were included in a single analysis. […] Significant effects of both CYP3A5 and ABCB1 variants on tacrolimus pharmacokinetics was assessed using multivariate analysis of variance.
All patient demographics and tacrolimus pharmacokinetic parameters were summarized by metabolic composite score for CYP3A5^∗3^∗6^∗7 using the mean and standard deviation for continuous variables. The potential trend between metabolic composite genotypes and association to tacrolimus pharmacokinetics were evaluated using the two-sided Jonckheere-Terpstra test for trends ([Jonckheere, 1983]). Post hoc pairwise comparisons were made using Holm-Bonferroni adjusted Wilcoxon rank sum tests (version 9.3, SAS Institute, Cary, NC). Significant combined effects reflecting composite metabolic CYP3A5 and ABCB1 variants on tacrolimus pharmacokinetics was assessed using multivariate analysis of variance ([Littell et al., 2006]). Significant effects are shown in bold.

[4] = single chromosome; for AUC0–4, phenotypic mean [95% CI] / AUC*, phenotypic mean [95% CI]: race adjusted Thesias; for CL_F, phenotypic mean [95% CI]: sex-adjusted Thesias
Procedure: (§2) All patients were at steady-state conditions for both tacrolimus and ECMPS. Patients were enrolled only if they had received the same dose of tacrolimus and ECMPS for ≥7 days prior to study. This was assumed to be sufficient to approach steady-state plasma concentrations. Proton pump inhibiters, H2 antagonists and antacids were discontinued at least 36 h prior to study. Patients took immunosuppressives between 5:30 to 6:30 PM prior to study, fasted and abstained from caffeine and alcohol for 12 h prior to study. At 6:00 AM, patients were admitted, vital signs documented and an intravenous angiocatheter inserted. A 0 h sample (∼15 ml) was collected prior to immunosuppressives for drug troughs and laboratory tests (ECMC Clinical Chemistry Laboratory). Oral study medications [(single lot of tacrolimus (Prograf) and ECMPS (Myfortic)] were administered at 7:00 AM. Patients remained upright throughout the study. Standardized low fat meals were provided after 4 h. Antihypertensives were administered after 1.5 h and non-immunosuppressives after 4 h. Blood samples (7 ml) were collected at 0 h and 1, 2, 3, 4, 6, 8, 10, and 12 h after drug administration. Whole blood samples were aliquoted within 30 minutes and stored at −70°C until analysis.
(§3) Given the known linkage among all three ABCB1 SNPs, haplotype analysis was conducted. […] ABCB1 haplotype estimation was determined using the THESIAS program ([Tregouet et al., 2004]; [Tregouet and Garelle, 2007]). THESIAS uses a maximum likelihood algorithm for the simultaneous estimation of haplotype frequencies and their association to tacrolimus pharmacokinetic parameters.
(§4) Tacrolimus troughs and pharmacokinetic concentrations were analyzed within 24 h at the ECMC Clinical Laboratory using the [sequence] tacrolimus assay (Abbott, Abbott Park, IL), a chemiluminescent microparticle immunoassay. The lower limit of detection was 0.5 ng/ml and intraday assay variability was <7%. The calibration standard curve ranged from 1 to 30 ng/ml and quality controls (QC) were 3.0, 12.0, and 25 ng/mL (Bio-Rad, Hercules, CA, United States). The interday coefficient of variation (CV) for each QC was <4% and intra-day CV was <5%. Selected troughs and peaks (N = 40 samples) were analyzed using a validated LCMSMS assay by a CLIA certified external analytical laboratory and compared to the results generated from the [sequence] tacrolimus assay with excellent agreement (R^2 = 0.98). For the tacrolimus LCMSMS assay, the interday and intraday CV were <5% at the low and high concentration QC.
(§5) Pharmacokinetic parameters included area under the concentration versus time curve 0 to 12 h (AUC0–12 h), dose-normalized AUC0–12 (AUC^∗); 12-h trough (C12 h) and peak concentration (Cmax) with dose normalization and time to peak (T max). Oral clearance of tacrolimus was the ratio of dose to AUC0–12 h. Tacrolimus clearances were adjusted for TBW and LBW. AUC0–12 was determined by the linear trapezoidal rule using non-compartmental methods (Phoenix WINNONLIN Version 6.3. Pharsight Corp, Mountain View, Calif). C12 h, Cmax, AUC0–4 h, and AUC0–12 were dose-normalized to 1 mg dose equivalent.

[5] = clinical; conditions: both, human, whole blood, oral
Procedure: as §2, §3, §4, §5

[6] = ABCB1 3534 CC, CYP3A5 Extensive (N 6)
[7] = ABCB1 3534 CC, CYP3A5 Intermediate (N 10)
[8] = ABCB1 3534 CC, CYP3A5 Poor (N 13)
[9] = ABCB1 3534 CT and TT, CYP3A5 Extensive (N 6)
[10] = ABCB1 3534 CT and TT, CYP3A5 Intermediate (N 10)
[11] = ABCB1 3534 CT and TT, CYP3A5 Poor (N 20)
[12] = 2.35 mg, ABCB1 3534 CT and TT, CYP3A5 Poor (N 20)
[13] = 2.46 mg, ABCB1 3534 CC, CYP3A5 Poor (N 13)
[14] = 3.55 mg, ABCB1 3534 CT and TT, CYP3A5 Intermediate (N 10)
[15] = 4 mg, ABCB1 3534 CC, CYP3A5 Intermediate (N 10)
[16] = 5.08 mg, ABCB1 3534 CT and TT, CYP3A5 Extensive (N 6)
[17] = 5.67 mg, ABCB1 3534 CC, CYP3A5 Extensive (N 6)

COc1c(C)c2c(c(O)c1C/C=C(\C)CCC(=O)O)C(=O)OC2 [MPA, mycophenolic acid]
concentration at 12 h ([1]; CYP3A5*3*6*7 Extensive group (N 7)): 42 ng/mL
concentration at 12 h ([1]; CYP3A5*3*6*7 Intermediate group (N 23)): 41 ng/mL
concentration at 12 h ([1]; CYP3A5*3*6*7 Poor group (N 35)): 32 ng/mL
concentration at 12 h ([1]; Overall (N 65)): 37 ng/mL

C=CC[C@@H]1/C=C(\C)C[C@H](C)C[C@H](OC)[C@H]2O[C@@](O)(C(=O)C(=O)N3CCCC[C@H]3C(=O)O[C@H](/C(C)=C/[C@@H]3CC[C@@H](O)[C@H](OC)C3)[C@H](C)[C@@H](O)CC1=O)[C@H](C)C[C@@H]2OC [tacrolimus]
patients with 12-h tacrolimus exposures <120 ng.hr/ml ([2]; Blacks, 10/33): 30%
AUC* lower in Extensive than Poor metabolizers ([2]; P < 0.001): 50%
patients with 12-h tacrolimus exposures <120 ng.hr/ml ([2]; Whites, 17/32): 53%
patients exhibiting AUC0–12 h below the recommended therapeutic range ([2]; all patients, in spite of achieving target troughs): approximately 40%
dose normalized trough (Cp12hr/dose), Poor compared to Extensive Metabolizers ([2]; greater in Poor, P = 0.0016): 2.5 fold
dose-adjusted AUC0–12 h, Poor compared to Extensive metabolizers ([2]; higher in Poor, P < 0.001): 2 fold
patients within the therapeutic trough range ([2]; target range >4 ng/ml and <15 ng/ml): 64 of 65
AUC0–12 Dose [3, 6]: 23.95 (8.30) ng.hr/ml/mg
C12hr/dose [3, 6]: 1.43 (0.55) ng/ml/mg
CL_F [3, 6]: 48.23 (4.32) L/hr
Cmax/Dose [3, 6]: 3.36 (1.19) ng/ml
AUC0–12 Dose [3, 7]: 36.76 (6.43) ng.hr/ml/mg
AUC* [3, 7]: 130.75 (9.73) ng.hr/ml
C12hr/dose [3, 7]: 2.16 (0.43) ng/ml/mg
CL_F [3, 7]: 31.30 (3.35) L/hr
Cmax/Dose [3, 7]: 5.21 (0.92) ng/ml
AUC0–12 Dose [3, 8]: 56.39 (5.64) ng.hr/ml/mg
C12hr/dose [3, 8]: 3.44 (0.37) ng/ml/mg
CL_F [3, 8]: 22.61 (2.94) L/hr
Cmax/Dose [3, 8]: 7.20 (0.81) ng/ml
AUC0–12 Dose [3, 9]: 28.97 (8.30) ng.hr/ml/mg
AUC* [3, 9]: 129.45 (12.57) ng.hr/ml
C12hr/dose [3, 9]: 1.57 (0.55) ng/ml/mg
CL_F [3, 9]: 39.53 (4.32) L/hr
Cmax/Dose [3, 9]: 4.95 (1.19) ng/ml
AUC0–12 Dose [3, 10]: 42.94 (6.43) ng.hr/ml/mg
C12hr/dose [3, 10]: 2.40 (0.43) ng/ml/mg
CL_F [3, 10]: 24.49 (3.35) L/hr
Cmax/Dose [3, 10]: 6.61 (0.92) ng/ml
AUC0–12 Dose [3, 11]: 56.80 (4.55) ng.hr/ml/mg
C12hr/dose [3, 11]: 3.30 (0.30) ng/ml/mg
CL_F [3, 11]: 20.09 (2.37) L/hr
Cmax/Dose [3, 11]: 8.09 (0.65) ng/ml
effect of ABCB1 3435 T allele on tacrolimus clearance ([3]; across all 3 CYP3A5 metabolic composite groups, P = 0.040): significantly reduced
Tmax ([3]; both sexes, 2.46 mg, ABCB1 3534 CC, CYP3A5 Poor (N 13)): 1.94 h
Tmax ([3]; both sexes, 4 mg, ABCB1 3534 CC, CYP3A5 Intermediate (N 10)): 1.87 h
Tmax ([3]; both sexes, 5.67 mg, ABCB1 3534 CC, CYP3A5 Extensive (N 6)): 1.78 h
AUC ([3]; 2.35 mg, ABCB1 3435 CT and TT, CYP3A5 Poor (N 20)): 118 ng·h/mL
Cmax [3, 12]: 17 ng/mL
Tmax [3, 12]: 1.72 h
concentration at 12 h [3, 12]: 6.81 ng/mL
clearance [3, 12]: 6.5 mL/min/kg
AUC ([3]; 2.46 mg, ABCB1 3435 CC, CYP3A5 Poor (N 13)): 117 ng·h/mL
Cmax [3, 13]: 15.7 ng/mL
concentration at 12 h [3, 13]: 6.94 ng/mL
clearance [3, 13]: 6.17 mL/min/kg
AUC ([3]; 3.55 mg, ABCB1 3435 CT and TT, CYP3A5 Intermediate (N 10)): 150 ng·h/mL
Cmax [3, 14]: 23.3 ng/mL
Tmax [3, 14]: 2.29 h
concentration at 12 h [3, 14]: 8.37 ng/mL
clearance [3, 14]: 6.83 mL/min/kg
Cmax [3, 15]: 18.6 ng/mL
concentration at 12 h [3, 15]: 7.55 ng/mL
clearance [3, 15]: 9.17 mL/min/kg
Cmax [3, 16]: 23.7 ng/mL
Tmax [3, 16]: 2.03 h
concentration at 12 h [3, 16]: 6.58 ng/mL
clearance [3, 16]: 13.2 mL/min/kg
AUC ([3]; 5.67 mg, ABCB1 3435 CC, CYP3A5 Extensive (N 6)): 122 ng·h/mL
Cmax [3, 17]: 17 ng/mL
concentration at 12 h [3, 17]: 7.4 ng/mL
clearance [3, 17]: 15 mL/min/kg
C max/Dose, phenotypic mean [95% CI] ([4]; ABCB1 variant haplotype TTT): 4.06[3.19 – 4.93] ng/ml/mg
AUC0–4, phenotypic mean [95% CI] ([4]; ABCB1 variant haplotype TTT): 43.9 [33.4 – 54.4] ng.hr/ml/mg
AUC*, phenotypic mean [95% CI] ([4]; ABCB1 variant haplotype TTT): 92.2 [74.6 – 109.8] ng.hr/ml/mg
CL_F, phenotypic mean [95% CI] ([4]; ABCB1 variant haplotype TTT): 13.99 [7.87 – 20.11]* L/hr
C max/Dose, phenotypic mean [95% CI] ([4]; ABCB1 wild type haplotype CGC): 3.01[2.42 – 3.59] ng/ml/mg
AUC0–4, phenotypic mean [95% CI] ([4]; ABCB1 wild type haplotype CGC): 36.59 [30.2 – 42.9] ng.hr/ml/mg
AUC*, phenotypic mean [95% CI] ([4]; ABCB1 wild type haplotype CGC): 80.0[68.8 – 91.1] ng.hr/ml/mg
CL_F, phenotypic mean [95% CI] ([4]; ABCB1 wild type haplotype CGC): 20.4 [14.5 – 26.3]* L/hr
clearance ([5]; 1.58 mg): 6 mL/min/kg
clearance ([5]; 2.45 mg): 8 mL/min/kg

— publication PMC7433713, “Beyond Single Nucleotide Polymorphisms: CYP3A5^∗3^∗6^∗7 Composite and ABCB1 Haplotype Associations to Tacrolimus Pharmacokinetics in Black and White Renal Transplant Recipients” (Frontiers in Genetics, 2020)
